Test results: patent publication US5773239A, “Mannosidase inhibitors, process for their preparation and their use as therapeutic agents” (Mount Sinai Hospital Corporation., priority 1995, dated 1998)

Target: T1, rat liver Golgi α-mannosidase II (Rattus norvegicus, UniProt P28494)
T1 construct: The assay for rat liver Golgi α-mannosidase II; from tissue; host or cells: rat liver (Golgi)
T1 sequence (P28494 1-1148): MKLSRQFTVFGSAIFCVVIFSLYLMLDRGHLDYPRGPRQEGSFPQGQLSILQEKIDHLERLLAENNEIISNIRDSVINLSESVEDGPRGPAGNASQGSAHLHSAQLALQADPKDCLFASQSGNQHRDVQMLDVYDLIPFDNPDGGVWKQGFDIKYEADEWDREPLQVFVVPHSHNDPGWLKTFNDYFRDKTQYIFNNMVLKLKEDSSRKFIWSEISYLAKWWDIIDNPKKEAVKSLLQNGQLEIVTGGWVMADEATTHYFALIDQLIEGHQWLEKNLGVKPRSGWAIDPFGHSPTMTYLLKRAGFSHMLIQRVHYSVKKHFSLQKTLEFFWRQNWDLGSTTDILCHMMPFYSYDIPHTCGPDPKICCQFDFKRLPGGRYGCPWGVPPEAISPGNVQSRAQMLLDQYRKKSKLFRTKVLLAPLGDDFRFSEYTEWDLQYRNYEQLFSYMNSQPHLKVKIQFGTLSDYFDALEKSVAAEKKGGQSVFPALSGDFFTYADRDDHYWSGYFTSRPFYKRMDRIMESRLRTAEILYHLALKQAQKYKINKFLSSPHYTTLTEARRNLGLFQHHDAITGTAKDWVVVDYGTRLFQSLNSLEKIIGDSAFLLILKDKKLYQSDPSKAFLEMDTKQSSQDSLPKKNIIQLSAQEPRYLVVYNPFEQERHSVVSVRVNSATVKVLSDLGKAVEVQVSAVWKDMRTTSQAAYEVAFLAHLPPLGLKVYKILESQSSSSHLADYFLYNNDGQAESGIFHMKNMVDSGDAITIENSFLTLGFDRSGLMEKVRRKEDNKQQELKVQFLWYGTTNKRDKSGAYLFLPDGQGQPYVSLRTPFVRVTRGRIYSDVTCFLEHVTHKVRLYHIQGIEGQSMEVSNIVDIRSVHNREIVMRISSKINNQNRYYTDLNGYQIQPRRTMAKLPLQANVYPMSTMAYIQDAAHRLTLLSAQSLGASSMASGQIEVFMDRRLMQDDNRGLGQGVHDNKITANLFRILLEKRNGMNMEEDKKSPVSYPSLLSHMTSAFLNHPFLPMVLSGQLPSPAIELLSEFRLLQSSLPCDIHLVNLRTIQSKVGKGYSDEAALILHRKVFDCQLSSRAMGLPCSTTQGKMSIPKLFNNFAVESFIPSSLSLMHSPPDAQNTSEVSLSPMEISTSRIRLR
Assay: Rat liver Golgi α-mannosidase II assay
Format: biochemical
Settings: para-nitrophenyl α-mannose, pH 5.6; read-out: IC50 ManII
Experimental: The assay for rat liver Golgi α-mannosidase II contained 5 mM para-nitrophenylα-mannose, 40 mM sodium acetate pH 5.6, plus serially diluted test compouunds and mannosidase enzyme in a total volume of 50 ul, in 96 well plates. Plates were incubated 45 min at 37° C., then the reaction was stopped with 50 μl of 0.5M sodium carbonate. […] The lysosomal mannosidase was done in the same procedure but with 40 mM sodium acetate buffer pH 5.0. The numbers in the table are IC50 values in μM for inhibition of mannosidase activity.

O[C@H]1[C@H]2[C@H](O)CCCN2C[C@H]1O [SW, Swainsonine, reference compound]
IC50: 100 nM
